The values below come from patent US20240173312A1, “Pharmaceutical Composition Comprising a Benzoheterocyclic Compound and Androgen Receptor Pathway Modulator and Application Thereof” (KANGPU BIOPHARMACEUTICALS, LTD., priority 2015, published 2024).

The assay relates to Vcap cells (androgen receptor (+) prostate cancer cells). Kind of assay: CTG cell proliferation assay (CellTiter-Glo). The note with it: for viability at 0.1 µM / viability at 1 µM / viability at 10 µM: Homo sapiens, VCaP, 120 h; for Cell survival rate: notes of Table 9: 1.0 μM tested compound in combination with 1.0 μM Enzalutamide. On the technique in general: ATP-based viability assays read luminescence as a measure of living cells.

[1] abbreviates: read-out: Survival rate of Vcap cells, Table 10, tested compound alone.
Setting [2] is: read-out: Survival rate of Vcap cells, Table 9, tested compound alone.
The mark [3] stands for this setting: read-out: Survival rate of Vcap cells, Table 9, tested compound alone, 1.0 μM.
[4] abbreviates: Table 9, tested compound 0.1 μM in combination with 1 μM ARN-509.
The mark [5] stands for this setting: Table 9, tested compound 0.1 μM in combination with 1 μM Enzalutamide.
The mark [6] stands for this setting: Table 9, tested compound 1.0 μM in combination with 1 μM ARN-509.
Where [7] appears, read: Table 9, tested compound 1.0 μM in combination with 1 μM Enzalutamide.
[8] abbreviates: Table 9, tested compound 10 μM in combination with 1 μM ARN-509.
Setting [9] is: Table 9, tested compound 10 μM in combination with 1 μM Enzalutamide.
Where [10] appears, read: read-out: Survival rate of Vcap cells, Table 3, tested compound alone.
[11] abbreviates: read-out: Survival rate of Vcap cells, Table 4, tested compound alone.
Where [12] appears, read: read-out: Survival rate of Vcap cells, Table 5, tested compound alone.

Molecules are shown by their SMILES. Like-named read-outs stand apart in the source and are kept apart here.

Procedure: In vitro test of the inhibition effect of the compound in combination with androgen receptor pathway modulators and the like on the prostate cancer cell proliferation.
The tested compounds were used alone or in combination with other androgen receptor pathway modulators respectively. […] After that, 100 μl of CellTiter-Glo® cell viability assay reagent (Promega, catalogue number G7570) was added to each well and mixed well on a vibrator for 10 minutes to induce cell lysis. The 96-well plate was placed at room temperature for 10 minutes, so as to stabilize its luminescence signal. A white bottom membrane was pasted on the bottom of the plate and the plate was tested using EnSpire.

On to `C[C@](O)(COc1ccc(C#N)cc1)C(=O)Nc1ccc(C#N)c(C(F)(F)F)c1` [MK-2866, reference compound], for which the viability at 0.1 µM under setting [1] turned out to be 76.5%. Also, the viability at 1 µM (read-out: Survival rate of Vcap cells, Table 10, tested compound alone, 1.0 μM) came out at 77.4%. The viability at 10 µM under setting [1] is 69.4%. In addition, the “Survival rate of Vcap cells” value is, setting by setting: (Table 10, tested compound 0.1 μM in combination with 1 μM B001) 64.8%; (Table 10, tested compound 1.0 μM in combination with 1 μM B001) 65.6%; (Table 10, tested compound 10 μM in combination with 1 μM B001) 57.8%.
On to `Nc1cccc2c1CN([C@H]1CCC(=O)NC1=O)C2=O` [B002], for which the Cell survival rate was 44.7%. Also, under setting [2], the viability at 0.1 µM is 85.6% and the viability at 10 µM worked out at 75.9%. In addition, under setting [3], the viability at 1 µM was 79.8%. In addition, the “Survival rate of Vcap cells” value under setting [4] is reported as 52.5%. The “Survival rate of Vcap cells” value under setting [5] stood at 53.9%. Also, the “Survival rate of Vcap cells” value under setting [6] is 44.7%. For the same molecule, under setting [7], the “Survival rate of Vcap cells” value is recorded as 44.7%. Moreover, the “Survival rate of Vcap cells” value under setting [8] is recorded as 44.3%. The “Survival rate of Vcap cells” value under setting [9] came out at 43.1%.
With `O=C1CCC(N2Cc3c(OCc4ccc(CN5CCOCC5)cc4)cccc3C2=O)C(=O)N1` (stereo not drawn) [D107], the viability at 0.1 µM runs as follows: under setting [10], 85.3%; under setting [11], 85.3%. Further, the viability at 1 µM reads like this: (read-out: Survival rate of Vcap cells, Table 3, tested compound alone, 1.0 μM) 77.2%; (read-out: Survival rate of Vcap cells, Table 4, tested compound alone, 1 μM) 77.2%. Further, the viability at 10 µM worked out at 69.3% under setting [10] and 69.3% under setting [11]. Further, the “Survival rate of Vcap cells” value runs as follows: (Table 3, tested compound 0.1 μM in combination with 1 μM ARN-509) 37.0%; (Table 3, tested compound 0.1 μM in combination with 1 μM Enzalutamide) 37.3%; (Table 3, tested compound 1.0 μM in combination with 1 μM ARN-509) 36.3%; (Table 3, tested compound 1.0 μM in combination with 1 μM Enzalutamide) 35.0%; (Table 3, tested compound 10 μM in combination with 1 μM ARN-509) 34.2%; (Table 3, tested compound 10 μM in combination with 1 μM Enzalutamide) 32.3%. The “Survival rate of Vcap cells” value was determined as 77.2% (Table 3, tested compound alone, 1.0 μM); 66.0% (Table 4, tested compound 0.1 μM in combination with 1 μM Abiraterone acetate); 43.9% (Table 4, tested compound 0.1 μM in combination with 1 μM Galeterone); 61.7% (Table 4, tested compound 1 μM in combination with 1 μM Abiraterone acetate); 42.4% (Table 4, tested compound 1 μM in combination with 1 μM Galeterone); 59.6% (Table 4, tested compound 10 μM in combination with 1 μM Abiraterone acetate). Also, the “Survival rate of Vcap cells” value amounted to 40.0% (Table 4, tested compound 10 μM in combination with 1 μM Galeterone) and 77.2% (Table 4, tested compound alone, 1 μM).
With `Nc1cccc2c1C(=O)N(C1CCC(=O)NC1=O)C2=O` (stereo not drawn) [F001], the viability at 0.1 µM under setting [12] came to 79.7%. Further, for the setting “read-out: Survival rate of Vcap cells, Table 5, tested compound alone, 1.0 μM”, the viability at 1 µM turned out to be 59.9%. Moreover, the viability at 10 µM under setting [12] came to 55.7%. In addition, the “Survival rate of Vcap cells” value runs as follows: (Table 5, tested compound 0.1 μM in combination with 1 μM ODM-201) 49.4%; (Table 5, tested compound 1.0 μM in combination with 1 μM ODM-201) 40.9%; (Table 5, tested compound 10 μM in combination with 1 μM ODM-201) 37.3%; (Table 5, tested compound alone, 1.0 μM) 59.9%.
With `[2H][C@]1(N2Cc3c(N)cccc3C2=O)CCC(=O)NC1=O` [B005], the Cell survival rate worked out at 47.6%. Further, under setting [2], the viability at 0.1 µM is 91.1% and the viability at 10 µM is 83.5%. The viability at 1 µM under setting [3] is 85%. Besides, under setting [4], the “Survival rate of Vcap cells” value is 53.4%. In addition, the “Survival rate of Vcap cells” value under setting [5] is recorded as 56.5%. Besides, under setting [6], the “Survival rate of Vcap cells” value amounted to 47.6%. Moreover, the “Survival rate of Vcap cells” value under setting [7] is 48.4%. Also, the “Survival rate of Vcap cells” value under setting [8] turned out to be 46.2%. Besides, the “Survival rate of Vcap cells” value under setting [9] is recorded as 46.5%.
For `[2H]C1(N2Cc3c(N)cccc3C2=O)CCC(=O)NC1=O` (stereo not drawn) [B004], the Cell survival rate is given as 51.2%. Under setting [2], the viability at 0.1 µM was determined as 94.1% and the viability at 10 µM came out at 88%. Also, the viability at 1 µM under setting [3] came out at 88.4%. The “Survival rate of Vcap cells” value under setting [4] worked out at 59.1%. Also, the “Survival rate of Vcap cells” value under setting [5] worked out at 60.4%. Also, under setting [6], the “Survival rate of Vcap cells” value was found to be 51.2%. Besides, the “Survival rate of Vcap cells” value under setting [7] was determined as 50.8%. The “Survival rate of Vcap cells” value under setting [8] is 48.0%. Besides, the “Survival rate of Vcap cells” value under setting [9] is given as 51.1%.
